Measured values as given in patent publication US20180371384A1, “METHOD FOR PRODUCING ROOTING-SUPPRESSED MALT” (SUNTORY HOLDINGS LIMITED, priority 2015, published 2018).

How the values were obtained:
barley (Sukai Golden) = experiment: Amount of rooting, yield and length of acrospires (Test Example 3); type: in vivo; conditions: for Amount of Rooting Based on 100 g of Barley: germination 5 days at 20° C.
Description: Here, the rooting amount used herein means total weight of a root thrusting out of the surface of each grain in malts which are malted from 100 g of raw material barley.
Crops of Sukai Golden harvested in the year 2013 (99% of germination ratio) were used as domestic (Japan) two-row malting barley cultivar. and steeping conditions were the same as those in Test Example 1. A standard in which steeping of barley was earned out in pure water (pH 7.0) was defined as “normal steeping bailey (Comparative Example 2),” and a standard in which steeping of barley was earned out in an aqueous solution having a pH listed in Table 3 with phosphoric acid was defined as “acidic steeping barley (Example 2),” and three batches of malts each of which was obtained by going through the steps of steeping, germination and kilning were prepared. For each of batches of the normal malts and the acidic steeping barley obtained, the weight of rooting was obtained, and an average length of acrospires and an yield were obtained in the same manner as Test Example 1 to calculate an average thereof. In addition, each of the contents of an acrid component and β-glucan was measured as follows, and the contents of enzymes were measured in the same manner as Test Example 2. […] In addition, the germination was carried out for 5 days while keeping a temperature at 20° C. In addition, an yield was calculated as X/100 (%) from X g of a weight of roots-removed malts obtained from 100 g of barley.

[1] = tested on: acrid component (hordatine glycoside); experiment: Measurement of acrid components in malts (LCMS); parameters: species or system barley
Description: In addition, the content of the acrid component in the acidic steeping malts obtained is, for example, lowered in a case of a pH of from 1.8 to 2.0 of the acidic steeping water, and the content is preferably 90% by weight or less, more preferably 80% by weight or less, even more preferably 75% by weight or less, even more preferably 70% by weight or less, even more preferably 60% by weight or less, and even more preferably 55% by weight or less, when defining the content of the acrid component in normal malts as 100% by weight. Here, the acrid component as used herein refers to a hordatine glycoside, and the content can be measured in accordance with a method set forth in the following Examples.
The amount 5.0 g of malts which are previously cryo-milled with ShakeMaster manufactured by Medical Bio Science are suspended in 40 mL of hot water at 65° C., and extraction is carried out at 65° C. for 1 hour. Thereafter, the extracts are subjected to centrifugation at 5,000 rpm for 20 minutes, and 10 mL of the supernatant is applied to PLS-2 solid phase column of GL Science (activated with methanol or the like), the column is washed with water, and thereafter fractions eluted with 20% ethanol are collected. The eluents are concentrated with SpeedVac, a concentrate is then freeze-dried, the freeze-dried product is dissolved in water, and the solution is subjected to LCMS under the following conditions, to obtain area of peak thereof.
Apparatus; LCMS-2020 manufactured by Shimadzu Corporation
Column: Polar column (Develosil-C30-UG-5. φ2×150 mm)
Mobile phase: Gradient of water containing 0.1% formic acid/acetocetonitrile[sic] • 0 to 62.5 minutes (2→10% acetonitrile) • 62.5 to 72.5 minutes (10% acetonitrile)
Column temperature: 40° C.

α-amylase = experiment: Measurement of α-amylase level in malts; parameters: species or system barley
Procedure: (§1) One gram of malts which are previously cryo-milled with ShakeMaster manufactured by Medical Bio Science is suspended in 2 mL of a buffer suitable for the measurement of activities of various enzymes, extraction is carried out for 60 minutes in iced water, and the extracts are then subjected to ultracentrifugation treatment (1,000 g×20 minutes), to provide the supernatant as an enzyme solution.
A crop a amylase kit from BIOCON is used. A blocked p-nitrophenyl maltoheptaoside (BPNPG7) is used as a substrate, enzyme extracts from malts are added thereto, and the mixture is reacted at 40° C. for 20 minutes. The reaction is stopped with Trizma base, and p-nitrophenyl maltosaccharide produced is degraded with glucoamylase, α-glucosidase. P-nitrophenol produced is subjected to phenolate color development, and the absorbance is measured at 410 nm (n=5).

endoprotease = experiment: Measurement of endoprotease level in malts; parameters: species or system barley
Procedure: One gram of […] previously cryo-milled with ShakeMaster manufactured by Medical Bio Science is suspended in 2 mL of a buffer suitable for the measurement of activities of various enzymes, extraction is carried out for 60 minutes in iced water, and the extracts are then subjected to ultracentrifugation treatment (1,000 g×20 minutes), to provide the supernatant as an enzyme solution. Azo-stained casein is used as a substrate, enzyme extracts from […] thereto, and the mixture is reacted at 40° C. for 30 minutes. The reaction is stopped with a TCA solution, the solution is allowed to stand for 5 minutes, the mixture is then subjected to centrifugation to precipitate an undegraded substrate, and the supernatant is subjected to colorimetry at 366 mn (n=5). Here, an enzyme activity is defined such that an enzyme concentration of an enzyme liquid which is added to an enzyme reaction liquid to increase the absorbance by 1.0 is 1 U/mL. […] A pH of the solution is then adjusted to 8.5 with a diluted sulfuric acid, and a volume is tilled up to 100 mL.

β-amylase = experiment: Measurement of β-amylase level in malts; parameters: species or system barley
Procedure: as §1, with “malts which are” left out, “solution. Enzyme extracts from […] to Betamyl (p-nitrophenyl maltotriose; […]” for “solution.”

## O=P(O)(O)O [Phosphoric Acid, phosphoric acid]
Barley (Sukai Golden); Initial pH 1.5, 223 mM
  Length of Acrospires: 0.38
  Amount of Rooting Based on 100 g of Barley: 0.03 g
Barley (Sukai Golden); Initial pH 1.6, 176 mM
  Length of Acrospires: 0.38
  Amount of Rooting Based on 100 g of Barley: 0.03 g
Barley (Sukai Golden); Initial pH 1.8, 82 mM
  Length of Acrospires: 0.38
  Amount of Rooting Based on 100 g of Barley: 0.05 g
Barley (Sukai Golden); Initial pH 2.0, 29 mM
  Length of Acrospires: 0.62
  Amount of Rooting Based on 100 g of Barley: 0.30 g
Barley (Sukai Golden); Initial pH 2.2, 18 mM
  Length of Acrospires: 0.63
  Amount of Rooting Based on 100 g of Barley: 1.51 g
Barley (Sukai Golden); Initial pH 2.4, 7 mM
  Length of Acrospires: 0.63
  Amount of Rooting Based on 100 g of Barley: 2.90 g
[1]; Initial pH 1.5, 223 mM
  Acrid Component (Based on Normal Steeping Barley, % by weight): 259 % by weight
[1]; Initial pH 1.6, 176 mM
  Acrid Component (Based on Normal Steeping Barley, % by weight): 104 % by weight
[1]; Initial pH 1.8, 82 mM
  Acrid Component (Based on Normal Steeping Barley, % by weight): 53 % by weight
[1]; Initial pH 2.0, 29 mM
  Acrid Component (Based on Normal Steeping Barley, % by weight): 80 % by weight
[1]; Initial pH 2.2, 18 mM
  Acrid Component (Based on Normal Steeping Barley, % by weight): 116 % by weight
[1]; Initial pH 2.4, 7 mM
  Acrid Component (Based on Normal Steeping Barley, % by weight): 120 % by weight
α-amylase; Initial pH 1.5, 223 mM
  α-Amylase (Based on Normal Steeping Barley, %): 21%
α-amylase; Initial pH 1.6, 176 mM
  α-Amylase (Based on Normal Steeping Barley, %): 25%
α-amylase; Initial pH 1.8, 82 mM
  α-Amylase (Based on Normal Steeping Barley, %): 39%
α-amylase; Initial pH 2.0, 29 mM
  α-Amylase (Based on Normal Steeping Barley, %): 90%
α-amylase; Initial pH 2.2, 18 mM
  α-Amylase (Based on Normal Steeping Barley, %): 90%
α-amylase; Initial pH 2.4, 7 mM
  α-Amylase (Based on Normal Steeping Barley, %): 91%
endoprotease; Initial pH 1.5, 223 mM
  Endoprotease (Based on Normal Steeping Barley, %): 16%
endoprotease; Initial pH 1.6, 176 mM
  Endoprotease (Based on Normal Steeping Barley, %): 20%
endoprotease; Initial pH 1.8, 82 mM
  Endoprotease (Based on Normal Steeping Barley, %): 45%
endoprotease; Initial pH 2.0, 29 mM
  Endoprotease (Based on Normal Steeping Barley, %): 65%
endoprotease; Initial pH 2.2, 18 mM
  Endoprotease (Based on Normal Steeping Barley, %): 68%
endoprotease; Initial pH 2.4, 7 mM
  Endoprotease (Based on Normal Steeping Barley, %): 35%
β-amylase; Initial pH 1.5, 223 mM
  β-Amylase (Based on Normal Steeping Barley, %): 187%
β-amylase; Initial pH 1.6, 176 mM
  β-Amylase (Based on Normal Steeping Barley, %): 128%
β-amylase; Initial pH 1.8, 82 mM
  β-Amylase (Based on Normal Steeping Barley, %): 557%
β-amylase; Initial pH 2.0, 29 mM
  β-Amylase (Based on Normal Steeping Barley, %): 400%
β-amylase; Initial pH 2.2, 18 mM
  β-Amylase (Based on Normal Steeping Barley, %): 370%
β-amylase; Initial pH 2.4, 7 mM
  β-Amylase (Based on Normal Steeping Barley, %): 221%
